Data as given in patent publication US8859819B2, “Sulphurated derivatives of resorcinol, preparation of same and cosmetic uses thereof” (Pierre Fabre Dermo-Cosmetique, priority 2009, dated 2014).
Where two headings read alike, the source gives them in different places.

Assays:
[1] = Antioxidant capacity by chemiluminescence (Photochem Analytik Jena); settings: for μg of sample for 1 μg of Trolox: Trolox equivalent, lower = stronger antioxidant
Protocol: This test is used to determine the antioxidant capacity of the molecules. It is a method that generates free radicals by a photochemical signal. The intensity of the oxidation is 1000 times greater than that obtained under normal conditions.
The detection is carried out by chemiluminescence. It enables the evaluation of hydrosoluble and liposoluble anti-oxidant molecules or extracts.
The results are expressed respectively in equivalent quantity of vitamin C or Trolox (6-hydroxy-2,5,7,8-tetramethylchroman-2-carboxylic acid). The sensitivity is of the order of a nanomole.
The antioxidant activity studied in this test represents the capacity to trap specifically superoxide anions by chemiluminescence.
The quantified results are expressed in Trolox equivalent (standard), i.e. in “μg of product for 1 μg of Trolox”. This signifies that a quantity×of sample is needed to obtain an activity equivalent to the activity detected for 1 μg of standard. It is an anti-oxidant power relative to a reference, which makes it possible to disregard the concentration tested.
The superoxide radical: 02^0− is generated by a photochemical reaction: L+hv (UV)+O2→L*O2→L^0++O2^0−
A part of the superoxide anions is quenched by the anti-oxidants. The remaining free radicals are quantified by chemiluminescence. L^0++O2^0−→N2+AP*^2−→AP^2−+hv (luminescence)

mushroom tyrosinase = biological target: T1, mushroom tyrosinase (Agaricus bisporus, UniProt C7FF04); experiment: Tyrosinase inhibition test (in vitro acellular depigmenting activity); format: biochemical; settings: for Tyrosinase depigmenting activity result: class symbol, assay from 250 to 150 μM, overall tyrosinase activity (MPMOg), L-tyrosine substrate
T1 construct: purchased Sigma T-3824
T1 sequence (C7FF04 1-392 limits assumed): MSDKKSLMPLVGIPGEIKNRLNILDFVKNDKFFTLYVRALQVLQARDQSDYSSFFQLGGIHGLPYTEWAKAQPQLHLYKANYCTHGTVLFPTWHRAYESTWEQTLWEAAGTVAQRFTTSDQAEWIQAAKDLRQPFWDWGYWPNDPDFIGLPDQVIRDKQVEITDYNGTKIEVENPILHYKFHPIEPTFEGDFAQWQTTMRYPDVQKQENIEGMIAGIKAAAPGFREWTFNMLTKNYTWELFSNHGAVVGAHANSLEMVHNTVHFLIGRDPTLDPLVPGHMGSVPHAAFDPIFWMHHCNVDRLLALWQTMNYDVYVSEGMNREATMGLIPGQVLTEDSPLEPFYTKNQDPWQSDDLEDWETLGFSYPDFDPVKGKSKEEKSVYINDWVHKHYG
Description: A) Determination of the Depigmenting Activity in an in vitro Acellular Test: Tyrosinase Inhibition Test)
This test is used to evaluate the depigmenting activity of the molecules tested. Tyrosinase is a limiting enzyme in melanogenesis.
It belongs to the family of oxydoreductases. It has in particular the function: monophenol monooxygenase (MPMO) and polyphenol oxidase (PPO).
It is synthesised at the level of the melanocytes. It is activated during its migration towards melanosome […]. It transforms tyrosine into DOPA then dopaquinone, which leads in fine to a polymerisation, i.e. a production of pigments (see diagram below).
The substrate: L-tyrosine, is transformed into L-DOPA by the monophenol mono oxygenase function which is transformed by the polyphenol oxidase function from tyrosinase into dopaquinone. The latter is going to self-oxidise into dopachrome which is measured by spectrophotometry at 490 nm.
More precisely, it is the overall tyrosinase activity (MPMOg) which is measured since it is the dopachrome in fine that is assayed. Thus the products tested on MPMOg (=measurement of the activity on PPO and MPMO) can cumulate the inhibition of the 2 functions, • inhibiting uniquely the MPMO function stricto sensus (transformation of tyrosine into DOPA) as a complement to the PPO test, • could inhibit PPO uniquely. General Experimental Conditions:

[2] = Protection of linoleic acid following a UV stress (Fenton conditions, MDA-TBA assay); parameters: % Protection Linoleic acid under UV/Fenton: concentration or dose not given beside the values; settings: for % Protection Linoleic acid under UV/Fenton: UV + H2O2 + iron II
Description: D) Test of Protection of Linoleic Acid Following a UV Stress. Target: Protection of Linoleic Acid Under Fenton Conditions, UV Irradiation Linoleic acid belongs to the family of polyunsaturated fatty acids (PUFA) (AGPI). Sensitive to oxidation, linoleic acid is a favoured target for oxygenated free radicals (OFR) in biological media. When biological membranes are exposed to an oxidative stress, the components the most affected are the phospholipids constituted of PUFA and cholesterol. Their degradation leads to lipidic peroxidation and generally to destructuring. Lipidic peroxidation is a self-catalysing process which generally involves OFR. Lipidic peroxidation is in part responsible for skin ageing. The method employed to evaluate lipid peroxidation is based on the coupling of thiobarbituric acid (TBA) and secondary degradation products leading to coloured compounds detectable by spectrofluorometry. The essential secondary compound of final degradation is malondialdehyde, MDA. MDA is a carcinogenic and mutagenic aldehyde, it acts on proteins and DNA. The sample to be tested is placed in contact with linoleic acid in a weight/weight ratio. The sample undergoes an MED (Minimal Erythemal Dose) irradiation under Fenton conditions, namely in the presence of H202 and iron II in a solar simulator. Following irradiation, the reaction mixture is taken up in methanol and derivatised at 90° C. with TBA. Chromogene, the MDA-TBA complex, representative of the equimolar production of MDA is assayed by fluorimetry (excitation at 525 nm, emission at 549 nm). The results are expressed in fluorescence units, as a function of a MDA-TBA control range then expressed as concentration of the MDA-TBA complex. Then, the percentage of the starting MDA/linoleic acid (LA) ratio is determined. Then the percentage of protection of linoleic acid is determined. The product assay is expressed as weight/weight ratio, in other words in weight percentage with respect to the total quantity of linoleic acid. The maximal MDA level is determined by the condition UV+H202+iron II (F). The percentage of protection of linoleic acid represents: the % ratio of MDA under maximal stress conditions untreated over the % of MDA under stress conditions treated by the product.

B16-F10 cells = experiment: Melanin assay test in B16-F10 cells; format: cell-based, murine; settings: Mus musculus, read-out: B16 activity results -% at X μM
Protocol: B) Melanin Assay Test in B16-F10 Cells:
This involves a test of measuring the synthesis of melanin by colorimetric assay on a murine melanoma cell line: the B16-F10 line. This test makes it possible to evaluate the depigmenting power of active ingredients.
The B16-F10 cells are cultured in 96-well plates in DMEM medium supplemented with FCS (foetal calf serum), and incubated for 24 hours at 37° C., 5% CO2. The cells are then stimulated with 0.1 μM α-MSH (to stimulate the synthesis of melanin, the stimulation observed is around 150%) and treated for 72 hours with the active ingredients to be tested. Each concentration of active ingredient is tested at least in triplicate. The total melanin followed by the intracellular melanin dissolved in the lysis buffer are then assayed by absorbance reading at 405 nm. The total proteins are assayed in the lysate and the results are expressed in mg melanin/mg proteins. The percentage of activity is calculated as follows: […]
A negative value indicates an inhibition, whereas a positive value indicates an induction of the synthesis of melanin.
• B16-F10 cell line between P10 and P20 (murine melanocytes) (ATCC, CRL-6475)
Reagents: • DMEM without phenol red (GibcoBRL, 31053-028), 200 mM Glutamax-I Supplement (GibcoBRL, 35050-038), D-PBS (GibcoBRL, 14190-094), Foetal calf serum (Invitrogen, 10270-098), Trypsine-EDTA (GibcoBRL, 25300-054), NaOH (Sigma, S8045-500G), DMSO (Sigma, 471267-1L), Nle, Phe—Melanocyte Stimulating Hormone (Sigma, M-8764), Melanin (Sigma, M-0418), BCA-Copper (Sigma, B9643 and C2284), BSA (Sigma, P0914) C) Test for the Study of the Antioxidant Capacity by Chemiluminescence (Photochem Analytik Jena) Principle: […]

[3] = reference products of the interpretation scale
[4] = monophenol monooxygenase (MPMO) function, reference molecules for the test, read-out: IC 50 (MPMO)

Compound | μg of sample for 1 μg of Trolox [1] | Tyrosinase depigmenting activity result (mushroom tyrosinase) | % Protection Linoleic acid under UV/Fenton [2] [%] | also measured
COc1ccc(/C=C/C(=O)Oc2cc(O)ccc2Sc2ccc(O)cc2O)cc1OC [Example 23, (E)-2-(2,4-dihydroxyphenylthio)-5-hydroxyphenyl 3-(3,4-dimethoxyphenyl)acrylate] | 2.8 μg of sample for 1 μg of Trolox | + + + | 96 | 
O=S(=O)(c1ccc(O)cc1O)c1ccc(O)cc1O [Example 29, 4,4′-sulphonyldibenzene-1,3-diol] | 301 μg of sample for 1 μg of Trolox |  | 25 | μg of sample for 1 μg of Trolox ([1]; listed as resorcinol sulphone): 301 μg of sample for 1 μg of Trolo
[O-][S+](c1ccc(O)cc1O)c1ccc(O)cc1O [Example 25, 4,4′sulphinyldibenzene-1,3-diol] | 73 μg of sample for 1 μg of Trolox | + + + | 79 | inhibition at 73 µM (B16-F10 cells; B16-F10, 73 μM, α-MSH stimulated, 72 hours, negative value = inhibition): 50%; IC50 (mushroom tyrosinase): 12 µM
Cc1cc(C(C)(C)C)c(O)c(C(C)(C)C)c1 [BHT, reference compound] |  |  |  | Activity (antioxidant, interpretation scale) [1, 3]: Good (3.01 to 50)
CCCCC/C=C\C/C=C\CCCCCCCC(=O)Oc1cc(O)ccc1[S+]([O-])c1ccc(O)cc1O (stereo not drawn) [Example 27, (9Z,12Z)-2-(2,4-dihydroxyphenylsulphinyl)-5-hydroxyphenyl octadeca-9,12-dienoate] | 40 μg of sample for 1 μg of Trolox |  | 78 | 
CCCCOc1ccc(Sc2ccc(O)cc2O)c(O)c1 [Example 6, 4-(4-butoxy-2-hydroxyphenylthio)benzene-1,3-diol] | 14.9 μg of sample for 1 μg of Trolox | + + + |  | inhibition at 20 µM (B16-F10 cells; B16-F10, 72 h): 30%
CCCCCCCCCCCC(=O)Oc1cc(O)ccc1Sc1ccc(O)cc1O [Example 14, 2-(2,4-dihydroxyphenylthio)-5-hydroxyphenyl dodecanoate] | 4.8 μg of sample for 1 μg of Trolox | + + + |  | inhibition at 48 µM (B16-F10 cells; B16-F10, 48 μM, α-MSH stimulated, 72 hours, negative value = inhibition): 50%
CCCCCCCCCCOc1cc(O)ccc1S(=O)(=O)c1ccc(O)cc1O [Example 30, 4-(2-(decyloxy)-4-hydroxyphenylsulphonyl)benzene-1,3-diol] | 147 μg of sample for 1 μg of Trolox |  | 34 | 
CCCCC/C=C\C/C=C\CCCCCCCC(=O)Oc1cc(O)ccc1Sc1ccc(O)cc1O [Example 21, (9Z, 12Z)-2-(2,4-dihydroxyphenylthio)-5-hydroxyphenyl octadeca-9,12-dienoate] | 5.9 μg of sample for 1 μg of Trolox | + + + |  | inhibition at 32 µM (B16-F10 cells; B16-F10, 32 μM, α-MSH stimulated, 72 hours, negative value = inhibition): 50%; IC50 (mushroom tyrosinase): 11 µM
Oc1ccc(O)cc1 [Hydroquinone, reference compound] |  |  |  | IC50 (mushroom tyrosinase; [4]): 3 to 4 µM
O=C(O)CCCC[C@@H]1CCSS1 (racemic) [Lipoic acid, reference compound] |  |  |  | Activity (antioxidant, interpretation scale) [1, 3]: None; μg of sample for 1 μg of Trolox (scale for interpreting the results, reference products) [1, 3]: NEGATIVE
O=c1c(O)c(-c2ccc(O)c(O)c2)oc2cc(O)cc(O)c12 [quercetin, reference compound] |  |  |  | protection of linoleic acid ([2]; positive control at 0.1% (weight/weight of linoleic acid)): around 50%; protection of linoleic acid ([2]; positive control at 1% (weight/weight of linoleic acid)): almost total protection
CCCCCCCCCCCC(=O)Oc1cc(O)ccc1[S+]([O-])c1ccc(O)cc1O (stereo not drawn) [Example 26, 2-(2,4-dihydroxyphenylsulphinyl)-5-hydroxyphenyl dodecanoate] | 69 μg of sample for 1 μg of Trolox |  | 80 | 
COc1ccc(/C=C/C(=O)Oc2cc(O)ccc2Sc2ccc(O)cc2O)cc1 [Example 22, (E)-2-(2,4-dihydroxyphenylthio)-5-hydroxyphenyl 3-(4-metoxyphenyl)acrylate] | 2.5 μg of sample for 1 μg of Trolox | + + + | 97 | 
OC[C@H]1O[C@@H](Oc2ccc(O)cc2)[C@H](O)[C@@H](O)[C@@H]1O [Arbutin, reference compound] |  |  |  | inhibition at 88 µM (mushroom tyrosinase; at 88 μM, MPMO function): 57%
N[C@@H](CCC(=O)N[C@@H](CS)C(=O)NCC(=O)O)C(=O)O [Reduced glutathion, reference compound] |  |  |  | % inhibition (PPO) (mushroom tyrosinase; at 25 μM, PPO function): 55%; IC50 (mushroom tyrosinase; [4]): 1 to 2 µM
CCCCCCCCCCOc1cc(O)ccc1[S+]([O-])c1ccc(O)cc1O (stereo not drawn) [Example 28, 4-(2-(decyloxy)-4-hydroxyphenylsulphinyl)benzene-1,3-diol] | 28 μg of sample for 1 μg of Trolox |  | 94 | 
CCCCCCCC(=O)Oc1ccc(Sc2ccc(O)cc2O)c(O)c1 [Example 16, 4-(2,4-dihydroxyphenylthio)-3-hydroxyphenyl octanoate] | 33.2 μg of sample for 1 μg of Trolox | + + + | 91 | 
N[C@@H](CS)C(=O)O [Cysteine, reference compound] |  |  |  | Activity (antioxidant, interpretation scale) [1, 3]: Medium (50.1 to 1000)
